This passage reports IC50 results from patent US20240317777A1, “NOVEL MACROCYCLIC AMINOPYRAZOLE COMPOUNDS AS CDK2 INHIBITORS” (Accutar Biotechnology Inc., priority 2023, published 2024).

Holding throughout (format): cell-based
The subject of test [1] is CCNE1-amplified OVCAR3 cells. Put plainly: Cell growth inhibition of CCNE1-amplified OVCAR3 cells (CellTiter-Glo). As to conditions: Homo sapiens, OVCAR-3, 144 h, 6 days. In a few lines: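 Growth read-out was CellTiter-Glo luminescence, taken after 10 min at room temperature at the end of a 6-day compound exposure at 37 °C. Compounds were diluted from DMSO stocks across various concentrations.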

For another test, the system named is CCNE1-normal SKOV3 cells. The test can be described thus: Cell growth inhibition of CCNE1-normal SKOV3 cells (CellTiter-Glo). As to conditions: Homo sapiens, SK-OV-3, 144 h, 6 days. As to the method:
Cell Growth Inhibition of CCNE1-Normal SKOV3 Cells
SKOV3 cells were obtained from American Type Culture Collection (ATCC, HTB-77). SKOV3 cells were seeded in 96-well plates at 1000 cells/well in 90 μl of RPM11640 growth medium containing 10% FBS and 1% Penicillin Streptomycin, and then incubated at 37° C. overnight. The following day, the test compound was administered to the cells by using 1000× compound stock solution prepared in DMSO at various concentrations. 1000× compound stock solution was first diluted in culturing medium to 10x, then 10 uL compound medium was added to each well in the cell plates. After administration of the compound, the cells were then incubated at 37° C. for 6 days. Upon completion, the plates were equilibrated at room temperature for approximately 10 minutes. 100 ul of CellTiter-Glo® Reagent (Promega) was added to each well. The plates were then incubated at room temperature for 10 minutes and luminescence was recorded by EnSpire plate reader (PerkinElmer).
(Cellular ATP, detected with luciferase, serves as a proxy for viable cell number.)

The subject of test [2] is Phospho-Rb (Ser807/811) in OVCAR3 cells. The test can be described thus: Phospho-Rb expression inhibition in OVCAR3 cells quantified by In Cell Western. As to conditions: Homo sapiens, OVCAR-3, 24 hours, read-out: OVCAR-3 pRb IC50. In a few lines:
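In-cell western: after 24 h compound exposure at 37° C, fixed OVCAR3 cells co-stained for pRb Ser807/811 (800 nm channel) and total Rb (680 nm channel), imaged by LI-COR Odyssey.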

For orientation: IC50 means the concentration at which inhibition is half-maximal. Turning to `[2H]C1([2H])CC(F)(F)[C@H](C)NC(=O)O[C@@H]2CC[C@@H](C2)c2cc([nH]n2)Nc2ccnc(c2)O1` [Compound 182, (1^1S,1^3R,9S,Z)-8,8-difluoro-9-methyl-2^1H-5,12-dioxa-3,10-diaza-4(4,2)-pyridina-2(3,5)-pyrazola-1(1,3)-cyclopentanacyclododecaphan-11-one-6,6-d2], the results for the half-maximal inhibitory concentration (IC50) (in test [1]; with CCNE1-normal SKOV3 cells; in test [2]) were 10 to 50 nM, 250 to 1250 nM and 2 to 10 nM, respectively.

On to `O=C1NC2(CCCCc3cncc(c3)Nc3cc(n[nH]3)[C@H]3CC[C@H](C3)O1)CC2` [Compound 142, (1′S,3′R,Z)-spiro[cyclopropane-1,9′-12-oxa-3,10-diaza-4(3,5)-pyridina-2(3,5)-pyrazola-1(1,3)-cyclopentanacyclododecaphan]-11′-one], for which the IC50 in test [1] was 10 to 50 nM; in the test with CCNE1-normal SKOV3 cells, 250 to 1250 nM; in test [2], 2 to 10 nM.

In the case of `O=C1NC23CC(CCOc4cc(cc(C(F)F)n4)Nc4cc([nH]n4)[C@H]4CC[C@H](C4)O1)(C2)C3` [compound 23], the 50% inhibitory concentration (IC50) is 2 to 10 nM in test [1], 50 to 250 nM with CCNE1-normal SKOV3 cells and no more than 2 nM in test [2].

For `O=C1NC23CC(CCc4cc(cc(C(F)F)n4)Nc4cc([nH]n4)[C@H]4CC[C@H](C4)O1)(C2)C3` [compound 20], the IC50 in test [1] was 10 to 50 nM; with CCNE1-normal SKOV3 cells, greater than 1250 nM; in test [2], 10 to 50 nM.

In the case of `C[C@H]1CCC(C)(C)NC(=O)O[C@@H]2CC[C@@H](C2)c2cc([nH]n2)Nc2cncc(c2)O1` [Compound 124, (1^1S,1^3R,6S,Z)-6,9,9-trimethyl-2^1H-5,12-dioxa-3,10-diaza-4(3,5)-pyridina-2(3,5)-pyrazola-1(1,3)-cyclopentanacyclododecaphan-11-one], the figures for the half-inhibitory concentration (IC50) (in test [1]; with CCNE1-normal SKOV3 cells; in test [2]) were 2 to 10 nM, 10 to 50 nM and no more than 2 nM, respectively.

In the case of `C[C@H]1C/C=C\C(F)(F)c2cc(ccn2)Nc2cc(n[nH]2)[C@H]2CC[C@H](C2)OC(=O)N1` [Compound 167, (1^1S,1^3R,2^4Z,9S)-5,5-difluoro-9-methyl-2^1H-12-oxa-3,10-diaza-4(4,2)-pyridina-2(3,5)-pyrazola-1(1,3)-cyclopentanacyclododecaphan-6-en-11-one], the results for the half-maximal inhibitory concentration (IC50) (in test [1]; with CCNE1-normal SKOV3 cells; in test [2]) were 10 to 50 nM, 250 to 1250 nM and 2 to 10 nM, respectively.

Regarding `O=C1NC2CC(C2)CC(F)(F)c2cc(ccn2)Nc2cc(n[nH]2)[C@H]2CC[C@H](C2)O1` (single isomer, unassigned) [Compound 169, (1^1S,1^3R,7^1R,7^3S,Z)-5,5-difluoro-2^1H-10-oxa-3,8-diaza-4(4,2)-pyridina-2(3,5)-pyrazola-1(1,3)-cyclopentana-7(1,3)-cyclobutanacyclodecaphan-9-one], the IC50 was 50 to 250 nM in test [1], greater than 1250 nM in the test with CCNE1-normal SKOV3 cells and 10 to 50 nM in test [2].

For `O=C1NC2(CCCOc3cc(ccn3)Nc3cc([nH]n3)[C@H]3CC[C@H](C3)O1)CC2` [Compound 33, (1'S,3′R,Z)-spiro[cyclopropane-1 9′-5,12-dioxa-3,10-diaza-4(4,2)-pyridina-2(3,5)-pyrazola-1(1,3)-cyclopentanacyclododecaphan]-11′-one], the concentration for half-maximal inhibition (IC50) in test [1] was 50 to 250 nM; with CCNE1-normal SKOV3 cells it was greater than 1250 nM; in test [2], 10 to 50 nM.

Turning to `C[C@@H]1NC(=O)O[C@@H]2CC[C@@H](C2)c2n[nH]c(c2F)Nc2ccnc(c2)OCCC1(F)F` [Compound 188, (1^1S,1^3R,9S,E)-2^4,8,8-trifluoro-9-methyl-2^1H-5,12-dioxa-3,10-diaza-4(4,2)-pyridina-2(3,5)-pyrazola-1(1,3)-cyclopentanacyclododecaphan-11-one], the IC50 was 50 to 250 nM in test [1], greater than 1250 nM with CCNE1-normal SKOV3 cells and 10 to 50 nM in test [2].

Take `C[C@@H]1NC(=O)O[C@@H]2CC[C@@H](C2)c2cc([nH]n2)Nc2cncc(c2)OCCC1(F)F` [Compound 190, (1^1S,1^3R,9S,Z)-8,8-difluoro-9-methyl-2^1H-5,12-dioxa-3,10-diaza-4(3,5)-pyridina-2(3,5)-pyrazola-1(1,3)-cyclopentanacyclododecaphan-11-one]: the IC50 in test [1] lay in the range of 10 to 50 nM; in the test on CCNE1-normal SKOV3 cells it was 250 to 1250 nM; in test [2], 2 to 10 nM.

As for `C[C@@H]1CCCNC(=O)O[C@@H]2CC[C@@H](C2)c2cc(n[nH]2)Nc2ccnc(c2)O1` [compound 11], the IC50 in test [1] was 50 to 250 nM; with CCNE1-normal SKOV3 cells, greater than 1250 nM; in test [2], 10 to 50 nM.

For `C[C@@H]1OCCCNC(=O)O[C@@H]2CC[C@@H](C2)c2cc([nH]n2)Nc2ccnc1c2` [compound 72], the figures for the IC50 (in test [1]; in the test with CCNE1-normal SKOV3 cells; in test [2]) were greater than 250 nM, greater than 1250 nM and 10 to 50 nM, respectively.

Turning to `O=C1NC23CC(COc4cc(ccn4)Nc4cc([nH]n4)[C@H]4CC[C@H](C4)O1)(C2)C3` [Compound 18, (1^1S,1^3R,Z)-2^1H-5,10-dioxa-3,8-diaza-4(4,2)-pyridina-2(3,5)-pyrazola-7(1,3)-bicyclo[1.1.1]pentana-1(1,3)-cyclopentanacyclodecaphan-9-one], the values for the IC50 (in test [1]; in the test on CCNE1-normal SKOV3 cells; in test [2]) were 50 to 250 nM, greater than 1250 nM and 50 to 250 nM, respectively.
